# Active and inactive are the calls of the source. No cut-off for these calls is given here.
# Columns and labels:
# [1] = biological target: Tyrosine-protein kinase JAK3 (Homo sapiens, UniProt P52333); test: Inhibition of human recombinant JAK3
# [2] = Cytotoxicity against human SKBR3 cells assessed as cell viability after 72 hrs by MTT assay; format: functional, cell-based; details: SK-BR-3, 72 h
# MDA-MB-157 = test: Cytotoxicity against human MDA-MB-157 cells assessed as cell viability after 72 hrs by MTT assay; format: functional, cell-based; details: MDA-MB-157, 72 h
# [3] = biological target: Glycogen synthase kinase-3 beta (Homo sapiens, UniProt P49841); test: Inhibition of human recombinant GSK3beta
# [4] = Cytotoxicity against human KYSE-150 cells assessed as cell viability after 72 hrs by MTT assay; format: functional, cell-based; details: KYSE-150, 72 h
# ZR-75-1 = test: Cytotoxicity against human ZR-75-1 cells assessed as cell viability after 72 hrs by MTT assay; format: functional, cell-based; details: ZR-75-1, 72 h
# [5] = biological target: RAF proto-oncogene serine/threonine-protein kinase (Homo sapiens, UniProt P04049); test: Inhibition of human recombinant c-RAF
# [6] = biological target: T1, Receptor-type tyrosine-protein kinase FLT3 (Homo sapiens, UniProt P36888); test: Inhibition of human recombinant Flt3
# T1 sequence (P36888 whole entry): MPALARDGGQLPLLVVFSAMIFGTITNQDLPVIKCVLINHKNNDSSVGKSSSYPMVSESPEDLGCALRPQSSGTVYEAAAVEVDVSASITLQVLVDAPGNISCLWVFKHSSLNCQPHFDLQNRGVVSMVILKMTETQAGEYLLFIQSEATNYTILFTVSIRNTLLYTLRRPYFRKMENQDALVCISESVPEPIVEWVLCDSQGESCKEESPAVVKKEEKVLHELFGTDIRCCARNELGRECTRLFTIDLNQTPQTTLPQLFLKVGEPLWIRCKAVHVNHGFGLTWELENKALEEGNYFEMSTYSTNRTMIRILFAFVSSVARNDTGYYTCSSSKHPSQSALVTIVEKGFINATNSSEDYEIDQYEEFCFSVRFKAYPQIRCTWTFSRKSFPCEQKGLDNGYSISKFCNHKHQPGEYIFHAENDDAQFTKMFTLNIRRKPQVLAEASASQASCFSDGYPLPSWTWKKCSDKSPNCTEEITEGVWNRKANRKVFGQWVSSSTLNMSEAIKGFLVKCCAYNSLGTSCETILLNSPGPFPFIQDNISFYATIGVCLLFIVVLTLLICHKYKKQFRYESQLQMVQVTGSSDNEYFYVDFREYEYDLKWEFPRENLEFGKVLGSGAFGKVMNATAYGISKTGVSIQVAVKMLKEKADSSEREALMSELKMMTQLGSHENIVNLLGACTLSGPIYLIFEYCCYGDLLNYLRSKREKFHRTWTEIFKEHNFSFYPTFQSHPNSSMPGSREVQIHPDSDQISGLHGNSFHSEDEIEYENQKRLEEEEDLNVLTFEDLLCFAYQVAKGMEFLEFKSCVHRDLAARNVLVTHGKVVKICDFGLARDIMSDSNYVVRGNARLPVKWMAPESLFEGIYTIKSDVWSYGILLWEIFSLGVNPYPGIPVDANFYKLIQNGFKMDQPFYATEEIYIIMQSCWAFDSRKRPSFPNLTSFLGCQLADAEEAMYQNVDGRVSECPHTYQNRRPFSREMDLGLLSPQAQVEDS
# SW480 = test: Cytotoxicity against human SW480 cells assessed as cell viability after 72 hrs by MTT assay; format: functional, cell-based; details: SW480, 72 h
# [7] = biological target: Serine/threonine-protein kinase PAK 4 (Homo sapiens, UniProt O96013); test: Inhibition of human recombinant PAK4
# [8] = biological target: Proto-oncogene tyrosine-protein kinase receptor Ret (Homo sapiens, UniProt P07949); test: Inhibition of human recombinant Ret
# Jurkat = test: Cytotoxicity against human Jurkat cells assessed as cell viability after 72 hrs by MTT assay; format: functional, cell-based
# Raji = test: Cytotoxicity against human Raji cells assessed as cell viability after 72 hrs by MTT assay; format: functional, cell-based
# [9] = biological target: Receptor-type tyrosine-protein kinase FLT3 (Homo sapiens) (UniProt P36888); test: Inhibition of FLT3 in human MV4-11 cells assessed as down regulation of STAT5 phosphorylation at >0.001 uM after 6 hrs by Western blotting analysis; format: cell-based
# [10] = biological target: Vascular endothelial growth factor receptor 3 (Homo sapiens, UniProt P35916); test: Inhibition of human recombinant Flt4
# [11] = biological target: Serine/threonine-protein kinase D2 (Homo sapiens, UniProt Q9BZL6); test: Inhibition of human recombinant PKD2
# [12] = biological target: Mast/stem cell growth factor receptor Kit (Homo sapiens, UniProt P10721); test: Inhibition of human recombinant ckit
# [13] = biological target: 5'-AMP-activated protein kinase catalytic subunit alpha-1 (Homo sapiens, UniProt Q13131); test: Inhibition of human recombinant AMPKalpha1
# [14] = biological target: Epidermal growth factor receptor (Homo sapiens, UniProt P00533); test: Inhibition of human recombinant EGFR
# A-375 = test: Cytotoxicity against human A375 cells assessed as cell viability after 72 hrs by MTT assay; format: functional, cell-based; details: A-375, 72 h
# [15] = biological target: Serine/threonine-protein kinase D1 (Homo sapiens, UniProt Q15139); test: Inhibition of human recombinant PKCmu
# [16] = Cytotoxicity against human SKHEP1 cells assessed as cell viability after 72 hrs by MTT assay; format: functional, cell-based; details: SK-HEP1, 72 h
# [17] = Cytotoxicity against human PC9 cells assessed as cell viability after 72 hrs by MTT assay; format: functional, cell-based; details: PC-9, 72 h
# [18] = Cytotoxicity against human A875 cells assessed as cell viability after 72 hrs by MTT assay; format: functional, cell-based; details: A875, 72 h
# [19] = biological target: Receptor-type tyrosine-protein kinase FLT3 (Homo sapiens) (UniProt P36888); test: Inhibition of FLT3 in human MV4-11 cells assessed as down regulation of ERK1/2 phosphorylation at >0.001 uM after 6 hrs by Western blotting analysis; format: cell-based
# A2058 = test: Cytotoxicity against human A2058 cells assessed as cell viability after 72 hrs by MTT assay; format: functional, cell-based; details: A2058, 72 h
# [20] = biological target: Tyrosine-protein kinase BTK (Homo sapiens, UniProt Q06187); test: Inhibition of human recombinant BTK
# MV4-11 = test: Cytotoxicity against human MV4-11 cells assessed as cell viability after 72 hrs by MTT assay; format: functional, cell-based; details: MV4-11, 72 h
# [21] = biological target: Platelet-derived growth factor receptor beta (Homo sapiens, UniProt P09619); test: Inhibition of human recombinant PDGFRbeta
# [22] = biological target: Tyrosine-protein kinase Fyn (Homo sapiens, UniProt P06241); test: Inhibition of human recombinant Fyn
# [23] = Cytotoxicity against human DLD1 cells assessed as cell viability after 72 hrs by MTT assay; format: functional, cell-based; details: DLD-1, 72 h
# [24] = biological target: Cyclin-dependent kinase 2 (Homo sapiens, UniProt P24941); test: Inhibition of human recombinant CDK2
# [25] = biological target: Serine/threonine-protein kinase PAK 1 (Homo sapiens, UniProt Q13153); test: Inhibition of human recombinant PAK1
# HeLa = test: Cytotoxicity against human HeLa cells assessed as cell viability after 72 hrs by MTT assay; format: functional, cell-based
# Sequence of 5'-AMP-activated protein kinase catalytic subunit alpha-1 (Q13131 whole entry): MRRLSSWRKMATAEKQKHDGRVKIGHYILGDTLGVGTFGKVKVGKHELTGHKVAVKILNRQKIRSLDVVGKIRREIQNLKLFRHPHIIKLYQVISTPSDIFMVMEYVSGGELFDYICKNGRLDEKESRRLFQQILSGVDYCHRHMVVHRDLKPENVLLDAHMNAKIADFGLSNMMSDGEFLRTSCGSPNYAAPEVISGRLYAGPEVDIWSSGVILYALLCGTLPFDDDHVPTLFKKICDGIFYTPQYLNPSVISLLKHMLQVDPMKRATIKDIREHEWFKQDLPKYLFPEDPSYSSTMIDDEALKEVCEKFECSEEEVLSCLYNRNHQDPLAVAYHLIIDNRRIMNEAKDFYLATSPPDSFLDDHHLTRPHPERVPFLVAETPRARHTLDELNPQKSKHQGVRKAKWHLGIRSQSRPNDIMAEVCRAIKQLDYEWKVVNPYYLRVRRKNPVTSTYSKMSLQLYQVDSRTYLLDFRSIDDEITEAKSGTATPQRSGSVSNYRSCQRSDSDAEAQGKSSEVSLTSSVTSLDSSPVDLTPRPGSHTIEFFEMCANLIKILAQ
# Sequence of Proto-oncogene tyrosine-protein kinase receptor Ret (P07949 whole entry): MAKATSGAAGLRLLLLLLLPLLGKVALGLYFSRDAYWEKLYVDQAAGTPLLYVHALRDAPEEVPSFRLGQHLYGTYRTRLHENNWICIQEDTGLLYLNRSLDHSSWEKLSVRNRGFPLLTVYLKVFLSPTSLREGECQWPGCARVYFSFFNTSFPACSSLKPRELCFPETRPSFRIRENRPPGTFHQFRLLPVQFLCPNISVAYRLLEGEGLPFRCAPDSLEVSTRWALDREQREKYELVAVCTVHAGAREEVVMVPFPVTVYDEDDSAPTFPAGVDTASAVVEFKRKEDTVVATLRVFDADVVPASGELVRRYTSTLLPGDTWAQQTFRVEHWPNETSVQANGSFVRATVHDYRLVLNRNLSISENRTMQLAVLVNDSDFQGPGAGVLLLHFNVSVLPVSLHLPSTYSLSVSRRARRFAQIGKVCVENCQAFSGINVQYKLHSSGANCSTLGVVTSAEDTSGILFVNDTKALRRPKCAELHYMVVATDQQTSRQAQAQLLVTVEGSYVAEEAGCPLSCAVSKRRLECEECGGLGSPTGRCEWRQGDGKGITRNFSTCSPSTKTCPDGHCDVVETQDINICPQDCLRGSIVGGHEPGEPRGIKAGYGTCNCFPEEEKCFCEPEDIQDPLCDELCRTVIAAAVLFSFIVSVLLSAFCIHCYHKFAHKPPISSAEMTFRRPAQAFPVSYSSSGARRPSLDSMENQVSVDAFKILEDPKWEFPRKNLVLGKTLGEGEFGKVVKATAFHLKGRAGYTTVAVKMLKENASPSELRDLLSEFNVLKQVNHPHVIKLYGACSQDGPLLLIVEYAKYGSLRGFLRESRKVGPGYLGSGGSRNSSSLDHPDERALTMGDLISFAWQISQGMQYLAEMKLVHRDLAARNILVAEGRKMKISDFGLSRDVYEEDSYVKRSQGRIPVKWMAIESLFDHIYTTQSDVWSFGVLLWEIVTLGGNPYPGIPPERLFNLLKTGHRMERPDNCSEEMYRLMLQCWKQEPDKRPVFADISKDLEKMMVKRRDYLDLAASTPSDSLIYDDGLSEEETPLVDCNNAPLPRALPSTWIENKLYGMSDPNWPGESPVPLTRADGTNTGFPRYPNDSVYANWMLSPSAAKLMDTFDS
# Sequence of RAF proto-oncogene serine/threonine-protein kinase (P04049 whole entry): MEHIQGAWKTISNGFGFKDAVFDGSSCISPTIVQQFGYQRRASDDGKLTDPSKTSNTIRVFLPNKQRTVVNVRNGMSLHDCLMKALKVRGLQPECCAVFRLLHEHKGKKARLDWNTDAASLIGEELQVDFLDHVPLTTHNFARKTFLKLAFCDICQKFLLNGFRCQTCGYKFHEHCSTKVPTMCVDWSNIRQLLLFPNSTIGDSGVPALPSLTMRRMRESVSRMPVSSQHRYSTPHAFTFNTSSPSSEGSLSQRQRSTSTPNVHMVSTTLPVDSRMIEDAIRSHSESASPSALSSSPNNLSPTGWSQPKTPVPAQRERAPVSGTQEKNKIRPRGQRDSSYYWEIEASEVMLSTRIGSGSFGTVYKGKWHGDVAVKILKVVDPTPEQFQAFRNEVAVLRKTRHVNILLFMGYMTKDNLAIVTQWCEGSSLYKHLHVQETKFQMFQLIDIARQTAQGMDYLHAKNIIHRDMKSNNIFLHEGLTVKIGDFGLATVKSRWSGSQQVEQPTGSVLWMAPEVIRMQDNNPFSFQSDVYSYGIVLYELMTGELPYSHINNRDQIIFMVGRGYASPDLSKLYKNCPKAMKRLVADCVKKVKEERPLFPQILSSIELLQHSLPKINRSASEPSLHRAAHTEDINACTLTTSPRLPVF
# Sequence of Vascular endothelial growth factor receptor 3 (P35916 whole entry): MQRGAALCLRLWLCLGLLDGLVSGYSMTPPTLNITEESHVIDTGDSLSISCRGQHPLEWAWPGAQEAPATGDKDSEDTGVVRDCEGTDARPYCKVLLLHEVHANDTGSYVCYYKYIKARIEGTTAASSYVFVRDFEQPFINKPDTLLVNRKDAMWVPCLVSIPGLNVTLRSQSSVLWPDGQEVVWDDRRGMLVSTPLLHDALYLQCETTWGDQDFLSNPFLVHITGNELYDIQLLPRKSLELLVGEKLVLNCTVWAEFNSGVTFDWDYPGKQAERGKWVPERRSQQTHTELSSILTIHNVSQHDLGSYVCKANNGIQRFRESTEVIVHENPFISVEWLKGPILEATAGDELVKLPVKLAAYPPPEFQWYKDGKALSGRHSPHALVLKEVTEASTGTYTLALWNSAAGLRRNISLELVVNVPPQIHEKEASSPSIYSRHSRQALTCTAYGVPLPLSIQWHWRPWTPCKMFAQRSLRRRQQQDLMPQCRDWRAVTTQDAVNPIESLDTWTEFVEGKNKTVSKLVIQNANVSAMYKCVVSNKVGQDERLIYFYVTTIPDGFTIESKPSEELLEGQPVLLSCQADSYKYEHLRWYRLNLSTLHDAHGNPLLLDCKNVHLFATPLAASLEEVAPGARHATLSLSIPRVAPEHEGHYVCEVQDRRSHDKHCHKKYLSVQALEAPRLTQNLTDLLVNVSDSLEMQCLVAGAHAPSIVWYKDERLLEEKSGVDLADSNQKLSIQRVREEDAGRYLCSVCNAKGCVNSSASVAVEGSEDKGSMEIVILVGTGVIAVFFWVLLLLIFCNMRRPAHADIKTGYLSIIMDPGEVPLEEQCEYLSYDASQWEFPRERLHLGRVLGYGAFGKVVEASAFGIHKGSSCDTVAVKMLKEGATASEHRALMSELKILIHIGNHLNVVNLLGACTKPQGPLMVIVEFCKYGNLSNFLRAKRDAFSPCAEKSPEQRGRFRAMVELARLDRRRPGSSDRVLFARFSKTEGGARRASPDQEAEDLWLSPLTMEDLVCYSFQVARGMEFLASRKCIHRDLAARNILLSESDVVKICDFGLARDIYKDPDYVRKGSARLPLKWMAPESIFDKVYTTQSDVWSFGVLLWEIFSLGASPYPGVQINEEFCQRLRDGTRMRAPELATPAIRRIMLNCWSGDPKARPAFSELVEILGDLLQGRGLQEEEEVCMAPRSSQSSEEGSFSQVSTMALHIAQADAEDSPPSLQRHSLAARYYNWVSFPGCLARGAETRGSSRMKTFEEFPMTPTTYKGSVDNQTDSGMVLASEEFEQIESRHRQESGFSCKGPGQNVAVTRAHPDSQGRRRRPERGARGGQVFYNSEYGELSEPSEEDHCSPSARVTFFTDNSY
# Sequence of Serine/threonine-protein kinase D2 (Q9BZL6 whole entry): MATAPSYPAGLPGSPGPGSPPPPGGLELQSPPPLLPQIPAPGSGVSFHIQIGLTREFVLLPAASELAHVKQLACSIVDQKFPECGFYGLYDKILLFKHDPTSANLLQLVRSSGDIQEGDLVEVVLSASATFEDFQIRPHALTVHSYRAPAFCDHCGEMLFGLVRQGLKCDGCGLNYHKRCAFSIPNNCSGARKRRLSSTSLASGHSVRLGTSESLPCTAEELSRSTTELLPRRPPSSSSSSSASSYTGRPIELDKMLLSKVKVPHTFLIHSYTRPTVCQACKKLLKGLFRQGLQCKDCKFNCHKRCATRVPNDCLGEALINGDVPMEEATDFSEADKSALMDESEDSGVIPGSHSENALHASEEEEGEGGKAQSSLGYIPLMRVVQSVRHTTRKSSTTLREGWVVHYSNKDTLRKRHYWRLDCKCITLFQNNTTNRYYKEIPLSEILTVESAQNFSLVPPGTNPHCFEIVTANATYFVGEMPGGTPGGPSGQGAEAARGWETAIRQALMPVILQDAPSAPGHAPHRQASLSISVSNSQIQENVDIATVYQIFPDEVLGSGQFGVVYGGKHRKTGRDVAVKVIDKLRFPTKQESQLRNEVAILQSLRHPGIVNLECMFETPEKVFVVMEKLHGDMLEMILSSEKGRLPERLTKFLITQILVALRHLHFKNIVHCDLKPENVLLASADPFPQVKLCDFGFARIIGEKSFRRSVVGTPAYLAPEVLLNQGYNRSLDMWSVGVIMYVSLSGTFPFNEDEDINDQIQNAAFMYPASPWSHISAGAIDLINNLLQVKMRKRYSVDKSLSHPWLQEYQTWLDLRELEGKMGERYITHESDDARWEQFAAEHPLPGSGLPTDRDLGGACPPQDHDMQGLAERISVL
# Sequence of Tyrosine-protein kinase Fyn (P06241 whole entry): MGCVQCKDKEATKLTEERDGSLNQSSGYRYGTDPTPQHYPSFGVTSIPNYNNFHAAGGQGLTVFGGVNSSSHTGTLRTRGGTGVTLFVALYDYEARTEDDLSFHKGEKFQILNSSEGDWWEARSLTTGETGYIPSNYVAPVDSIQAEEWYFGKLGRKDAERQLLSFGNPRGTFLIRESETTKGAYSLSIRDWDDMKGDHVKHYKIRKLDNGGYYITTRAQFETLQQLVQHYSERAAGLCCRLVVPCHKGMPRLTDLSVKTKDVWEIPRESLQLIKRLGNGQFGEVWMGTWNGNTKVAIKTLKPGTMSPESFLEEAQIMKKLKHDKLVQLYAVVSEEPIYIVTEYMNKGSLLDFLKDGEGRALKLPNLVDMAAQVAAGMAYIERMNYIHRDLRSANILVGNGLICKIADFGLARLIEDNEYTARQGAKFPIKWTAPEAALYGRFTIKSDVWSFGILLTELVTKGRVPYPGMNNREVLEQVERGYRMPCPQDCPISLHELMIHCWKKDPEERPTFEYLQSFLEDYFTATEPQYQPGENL
compound,measurement,setting,value
CN(C)CCCNC(=O)c1csc2nc(-c3ccc(NC(=O)Nc4cc(C(C)(C)C)on4)cc3)cn12,IC50,[1],> 10 µM
same,IC50,[2],10 µM
same,IC50,MDA-MB-157,> 10 µM
same,IC50,[3],> 10 µM
same,IC50,[4],> 10 µM
same,IC50,ZR-75-1,> 10 µM
same,IC50,[5],> 10 µM
same,IC50,[6],0.022 µM
same,IC50,SW480,10 µM
same,IC50,[7],> 10 µM
same,IC50,[8],0.986 µM
same,IC50,Jurkat,10 µM
same,IC50,Raji,> 10 µM
same,inhibition,[9],Active
same,IC50,[10],1.19 µM
same,IC50,[11],> 10 µM
same,IC50,[12],0.294 µM
same,IC50,[13],> 10 µM
same,IC50,[14],> 10 µM
same,IC50,A-375,10 µM
same,IC50,[15],> 10 µM
same,IC50,[16],10 µM
same,IC50,[17],> 10 µM
same,IC50,[18],10 µM
same,inhibition,[19],Active
same,IC50,A2058,10 µM
same,IC50,[20],> 10 µM
same,IC50,MV4-11,0.002 µM
same,IC50,[21],1.98 µM
same,IC50,[22],> 10 µM
same,IC50,[23],10 µM
same,IC50,[24],> 10 µM
same,IC50,[25],> 10 µM
same,IC50,HeLa,20 µM
